Data on two molecules can be found in patent US12202835B2, “Substituted aromatic ring-linked dioxinoquinazolines and dioxinoquinolines as kinase inhibitors” (BEIJING SCITECH-MQ PHARMACEUTICALS LIMITED, priority 2018, dated 2025).

A value given as a limit tells only on which side of the number the result lay.

In one assay the target is VEGFR-2 kinase (Homo sapiens (Human), UniProt P35968). The experiment in a line: Assay of small molecular compounds for inhibiting the activity of VEGFR-2 kinase (LANCE TR-FRET). It counts as biochemical. To be noted: read-out: VEGFR2 IC50. The method, then: The assay is based on the LANCE TR-FRET technology of Perkin Elmer Inc., and the assay method is as follows: • 1. Dilution of compounds: a total of 11 concentrations were obtained using a 3-fold gradient dilution from the highest concentration of 2500 nM (the maximum final concentration of the drug used in this assay was 2500 nM, and the minimum final concentration was 0.042 nM). • 2. 2.5 μL of the gradient-diluted compounds were taken with a transfer pipette to a 384-well plate. • 3. Addition of enzyme: 5 μL of 2×VEGFR2 kinase solution (with a concentration of 0.5 nM) was taken with a transfer pipette to the corresponding reaction well of the 384-well plate, mixed well and pre-reacted at room temperature for 30 minutes. • 4. 2.5 μL 4× Ultra ULight™-JAK-1 (Tyr1023) Peptide (with a concentration of 200 nM)/ATP (with a concentration of 40 μM) mixture was taken with a transfer pipette to the corresponding reaction well of the 384-well plate. • 5. Negative control: 2.5 μL/well 4× substrate/ATP mixture and 7.5 μL 1× Kinase Assay Buffer were added to the wells of the 384-well plate. • 6. Positive control: 2.5 μL/well 4× substrate/ATP mixture, 2.5 μL/well 1× Kinase Assay Buffer containing 16% DMSO, and 5 μL/well 2×VEGFR-2 kinase solution were added to the 384-well plate. The final concentration of DMSO in the reaction system was 4%. • 7. The mixture was mixed well and then centrifuged and reacted at room temperature in dark for 60 min. • 8. Termination of the enzymatic reaction: 5 μL of 4× stop solution was taken with a transfer pipette to the wells of the 384-well plate, mixed and then centrifuged, and reacted at room temperature for 5 min. • 9. Development of the reaction: 5 μL of 4× detection solution was taken with a transfer pipette to the wells of the 384-well plate for color development, and the mixture was mixed and then centrifuged and reacted at room temperature for 60 min. • 10. The 384-well plate was placed into the Envision plate reader and the signal was detected using the appropriate program. • 11. Analysis and processing of the raw data: The drug concentrations and the corresponding inhibition rates were input into GraphPad Prism5 for calculation, and the inhibition rate of the compounds were calculated as follows: inhibition rate (%)=(reading of positive well−reading of experimental well)/(reading of positive control well−reading of negative control well)×100%. Processing with GraphPad Prism5 software yielded the corresponding IC50 values (the concentration of the compound at which 50% of the highest inhibition of the enzyme is achieved).
For orientation: Time-resolved FRET reads energy transfer from a long-lived donor to a nearby acceptor.

The next assay relates to Ba/F3-AXL cells. The experiment in a line: Assay for inhibiting the proliferation of Ba/F3-AXL cells (CCK-8). It counts as cell-based. As to conditions: 72 hours of incubation, medium with 100 ng/mL hGas6, CCK-8. The method, then: The values were then imported into Graphpad Prism 5 software for curve fitting, and IC50 was calculated.
Another assay deals with MHCC97H cells. The assay is described as follows: Assay for inhibiting the proliferation of MHCC97H cells (CCK-8). The format is cell-based. To be noted: Homo sapiens. The method, then: (§1) In particular, the method of the assay of small molecular compounds for inhibiting cell proliferation is as follows: • 1. Cells cultured to a logarithmic growth phase (adherent cells need to be digested with trypsin and neutralized) were taken, pipetted evenly, transferred to a 15 mL centrifuge tube, and centrifuged at 1000 rpm at room temperature for 4 minutes; • 2. The supernatant was discarded; 5 mL of complete medium was added and pipetted evenly; 10 μL of cell suspension was taken out, mixed well with 10 μL of 0.4% trypan blue, and counted under a cell counter; the proportion of living cells was ensured to be above 90%; • 3. 80 μL of cell suspension per well was seeded into a 96-well plate according to the conditions shown in the attached table, and cultured overnight; in the outer 36 wells of the 96-well plate, no cells were added but only sterile water was added; only the inner 60 wells were used for cell assay and control; • 4. 5×compound dilution: the compounds were serially diluted 3-fold to obtain a total of 9 concentrations; 80-fold overall dilution was completed with complete medium, the resulting concentration was 5 times the final drug concentration, and DMSO concentration was 1.25%; • 5. 20 μL of the corresponding compounds with different concentration gradients were added to each well of assay wells of the 96-well plate; 20 μL of complete medium was added to positive and negative control wells and shaken well; and the final concentration of DMSO in each well was 0.25%; • 6. After 72 hours of incubation, 10 μL of CCK-8 reagent was added to each well and further incubated at 37° C. for 1-2 hours; and the OD value was read at 450 nm; • 7. Cell survival rate (%)=[(As−Ab)/(Ac−Ab)]*100% • As: Assay well (medium containing cells, CCK-8, compound), • Ac: Control well (medium containing cells, CCK-8), • Ab: Blank well (CCK-8, medium without cell and compound), • 8. The values were imported into Graphpad Prism 5 software for IC50 calculation.

The subject of the next assay is Ba/F3 LMNA-NTRK1 cells. The assay is described as follows: Assay for inhibiting the proliferation of Ba/F3 LMNA-NTRK1 cells (CCK-8). It counts as cell-based. As to conditions: Mus musculus, BaF3. Summed up:
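Viability was read as absorbance at 450 nm following 1–2 h CCK-8 incubation at 37 °C, relative to control and blank wells.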

Assay [1] has as its system Ba/F3 LMNA-NTRK1-G595R cells. The experiment in a line: Assay for inhibiting the proliferation of Ba/F3 LMNA-NTRK1-G595R cells (CCK-8). The format is cell-based. As to conditions: Mus musculus, BaF3. As to the method: as §1
The test system of another assay is EBC1 cells. The assay is described as follows: Assay for inhibiting the proliferation of EBC1 cells (CCK-8). It counts as cell-based. As to conditions: Homo sapiens, EBC-1. As to the method:
as §1

The target in another assay is TRKA kinase (Homo sapiens (Human), UniProt P04629). The experiment in a line: Assay of small molecular compounds for inhibiting the activity of TRKA kinase (LANCE TR-FRET). It counts as biochemical. In a few lines: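 TRKA (supplied as 2 nM 2× solution) was pre-reacted with compounds for 5 min at room temperature before a 4× ULight-TK peptide/ATP mix (400 nM/40 μM) started the 60-min dark reaction at 1% DMSO. After stop and 60-min detection, TR-FRET was read.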

The target of a further assay is c-MET kinase (Homo sapiens (Human), UniProt P08581). The assay is described as follows: Assay of small molecular compounds for inhibiting the activity of c-MET kinase (LANCE TR-FRET). The format is biochemical. To be noted: read-out: CMET IC50. Summed up: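 Eleven final concentrations from 2500 nM down to 0.042 nM, in 4% DMSO, were tested against human c-MET (2× stock 2 nM), with compound and enzyme premixed for 5 min. The phosphorylation reaction used 4× stock of 400 nM ULight-JAK-1 peptide and 40 μM ATP for 60 min at room temperature, then stop and detection steps. TR-FRET percent inhibition against positive and negative controls gave the IC50.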

As usually defined, the IC50 is the point on the concentration scale where inhibition reaches its midpoint.

Chain of TRKA kinase (P04629 33-796): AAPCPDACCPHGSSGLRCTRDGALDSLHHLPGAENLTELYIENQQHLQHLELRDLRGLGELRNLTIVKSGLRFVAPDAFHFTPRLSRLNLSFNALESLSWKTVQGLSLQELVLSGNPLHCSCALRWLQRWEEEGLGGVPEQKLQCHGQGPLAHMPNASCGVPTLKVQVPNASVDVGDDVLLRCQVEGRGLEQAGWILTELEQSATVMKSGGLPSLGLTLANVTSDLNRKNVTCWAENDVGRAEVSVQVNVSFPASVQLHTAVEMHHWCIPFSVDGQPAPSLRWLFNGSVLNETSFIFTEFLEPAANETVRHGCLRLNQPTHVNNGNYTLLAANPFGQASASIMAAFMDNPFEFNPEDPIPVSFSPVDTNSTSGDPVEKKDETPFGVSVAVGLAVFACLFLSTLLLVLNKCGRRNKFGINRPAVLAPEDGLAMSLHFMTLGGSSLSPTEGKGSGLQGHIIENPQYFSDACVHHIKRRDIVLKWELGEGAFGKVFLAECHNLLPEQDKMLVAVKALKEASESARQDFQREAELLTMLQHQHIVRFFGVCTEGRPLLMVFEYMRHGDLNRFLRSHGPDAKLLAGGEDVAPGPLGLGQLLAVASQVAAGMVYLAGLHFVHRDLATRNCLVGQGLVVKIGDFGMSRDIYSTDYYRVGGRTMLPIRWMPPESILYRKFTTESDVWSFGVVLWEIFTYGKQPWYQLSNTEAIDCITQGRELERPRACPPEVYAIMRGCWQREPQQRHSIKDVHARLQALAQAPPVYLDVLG
Chain of VEGFR-2 kinase (P35968 20-1356): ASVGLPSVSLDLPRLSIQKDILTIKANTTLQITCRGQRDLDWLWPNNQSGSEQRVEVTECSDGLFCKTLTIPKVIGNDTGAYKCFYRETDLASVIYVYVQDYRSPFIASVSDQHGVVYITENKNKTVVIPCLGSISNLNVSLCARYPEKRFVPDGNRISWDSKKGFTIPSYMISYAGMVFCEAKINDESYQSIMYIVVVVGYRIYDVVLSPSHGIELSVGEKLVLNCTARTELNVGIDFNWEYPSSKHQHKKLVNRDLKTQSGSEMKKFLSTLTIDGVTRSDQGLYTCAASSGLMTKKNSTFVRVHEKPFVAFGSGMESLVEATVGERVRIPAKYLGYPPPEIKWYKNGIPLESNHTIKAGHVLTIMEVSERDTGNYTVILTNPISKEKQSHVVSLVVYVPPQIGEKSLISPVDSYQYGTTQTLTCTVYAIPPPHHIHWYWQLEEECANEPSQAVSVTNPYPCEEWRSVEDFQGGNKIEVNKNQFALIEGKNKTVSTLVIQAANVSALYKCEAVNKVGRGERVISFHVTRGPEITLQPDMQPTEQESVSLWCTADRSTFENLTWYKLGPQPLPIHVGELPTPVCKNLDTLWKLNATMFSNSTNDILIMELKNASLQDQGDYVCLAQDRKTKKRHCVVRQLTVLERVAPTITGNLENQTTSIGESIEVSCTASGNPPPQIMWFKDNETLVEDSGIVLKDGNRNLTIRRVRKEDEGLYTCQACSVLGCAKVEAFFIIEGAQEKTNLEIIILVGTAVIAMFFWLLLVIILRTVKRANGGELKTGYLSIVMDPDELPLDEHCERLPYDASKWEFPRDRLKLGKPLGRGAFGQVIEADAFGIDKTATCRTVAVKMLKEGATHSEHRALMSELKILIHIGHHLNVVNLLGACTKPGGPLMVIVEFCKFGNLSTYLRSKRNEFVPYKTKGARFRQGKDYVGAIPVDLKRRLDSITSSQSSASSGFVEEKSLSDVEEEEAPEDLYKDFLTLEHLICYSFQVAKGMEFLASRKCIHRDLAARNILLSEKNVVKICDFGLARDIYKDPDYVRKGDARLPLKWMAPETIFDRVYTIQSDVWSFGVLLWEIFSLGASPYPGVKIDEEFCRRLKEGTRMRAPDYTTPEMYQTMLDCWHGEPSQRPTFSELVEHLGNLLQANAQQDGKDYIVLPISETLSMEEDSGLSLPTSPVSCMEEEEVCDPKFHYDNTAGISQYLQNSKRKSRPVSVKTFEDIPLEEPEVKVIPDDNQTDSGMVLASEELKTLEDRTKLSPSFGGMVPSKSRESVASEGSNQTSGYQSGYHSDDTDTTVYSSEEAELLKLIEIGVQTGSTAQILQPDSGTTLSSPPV
Chain of c-MET kinase (P08581 25-1390): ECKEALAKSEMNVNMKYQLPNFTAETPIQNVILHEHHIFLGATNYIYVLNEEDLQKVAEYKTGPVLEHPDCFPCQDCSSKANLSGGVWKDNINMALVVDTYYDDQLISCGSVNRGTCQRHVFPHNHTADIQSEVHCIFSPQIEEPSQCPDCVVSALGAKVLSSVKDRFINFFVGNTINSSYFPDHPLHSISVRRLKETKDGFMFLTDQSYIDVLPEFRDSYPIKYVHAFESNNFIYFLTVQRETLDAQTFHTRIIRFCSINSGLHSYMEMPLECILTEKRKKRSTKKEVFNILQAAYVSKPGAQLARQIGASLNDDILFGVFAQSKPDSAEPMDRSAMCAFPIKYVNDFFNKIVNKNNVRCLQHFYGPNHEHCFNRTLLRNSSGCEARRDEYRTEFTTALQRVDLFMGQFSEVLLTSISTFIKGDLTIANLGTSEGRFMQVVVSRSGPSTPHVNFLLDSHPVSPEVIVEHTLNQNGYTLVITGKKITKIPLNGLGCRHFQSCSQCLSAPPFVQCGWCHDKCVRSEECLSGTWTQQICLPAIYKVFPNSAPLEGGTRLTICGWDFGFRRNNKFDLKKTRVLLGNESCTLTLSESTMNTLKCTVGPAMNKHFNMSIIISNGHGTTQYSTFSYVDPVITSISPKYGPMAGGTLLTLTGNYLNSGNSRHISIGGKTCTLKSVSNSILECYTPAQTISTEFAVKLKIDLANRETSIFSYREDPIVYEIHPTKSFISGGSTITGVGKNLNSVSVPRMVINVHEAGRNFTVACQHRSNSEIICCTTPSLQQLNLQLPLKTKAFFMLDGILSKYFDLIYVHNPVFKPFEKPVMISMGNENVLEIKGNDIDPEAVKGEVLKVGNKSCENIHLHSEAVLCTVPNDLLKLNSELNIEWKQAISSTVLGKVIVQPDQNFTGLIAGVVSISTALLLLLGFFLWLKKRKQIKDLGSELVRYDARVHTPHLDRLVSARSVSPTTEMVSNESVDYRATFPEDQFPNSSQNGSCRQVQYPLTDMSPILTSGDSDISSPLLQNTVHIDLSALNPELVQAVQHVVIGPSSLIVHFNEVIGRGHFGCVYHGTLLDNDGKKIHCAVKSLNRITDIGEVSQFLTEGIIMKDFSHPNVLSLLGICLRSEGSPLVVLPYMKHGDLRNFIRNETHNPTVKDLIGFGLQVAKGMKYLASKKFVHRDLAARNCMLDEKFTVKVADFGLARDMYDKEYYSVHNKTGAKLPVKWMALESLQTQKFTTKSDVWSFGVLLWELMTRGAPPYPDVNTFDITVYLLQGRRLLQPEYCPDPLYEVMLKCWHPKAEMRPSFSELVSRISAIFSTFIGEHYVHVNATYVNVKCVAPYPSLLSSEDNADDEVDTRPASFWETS

As to `CN(C)CCCOc1cc2nccc(Oc3ccc(NC(=O)c4cn(C)c(=O)n(-c5ccc(F)cc5)c4=O)cc3F)c2c2c1OCCO2` [Example 86, N-(3-fluoro-4-((5-((3-dimethylamino)propoxy)-2,3-dihydro-[1,4]dioxino[2,3-f]quinolin-10-yl)oxy)phenyl)-3-(4-fluorophenyl)-1-methyl-2,4-dioxo-1,2,3,4-tetrahydropyrimidine-5-carboxamide], the IC50 on VEGFR-2 kinase was 0.05 to 0.5 µM; in the assay with Ba/F3-AXL cells it was less than 0.05 µM; in the assay with MHCC97H cells, 0.05 to 0.2 µM; in the assay on Ba/F3 LMNA-NTRK1 cells it was less than 0.05 µM; in assay [1] it was 0.05 to 0.2 µM; in the assay on EBC1 cells, no more than 0.05 µM.

Regarding `CCn1cc(C(=O)Nc2cc(F)c(Oc3ccnc4cc(OC)c5c(c34)OCCO5)cc2C)c(=O)n(-c2ccc(F)cc2)c1=O` [Example 178, N-(5-fluoro-4-((5-methoxy-2,3-dihydro-[1,4]dioxino[2,3-f]quinolin-10-yl)oxy)-2-methylphenyl)-3-(4-fluorophenyl)-1-ethyl-2,4-dioxo-1,2,3,4-tetrahydropyrimidine-5-carboxamide], the IC50 at TRKA kinase was less than 0.05 µM; on c-MET kinase, no more than 0.05 µM; in the assay on MHCC97H cells it was no more than 0.05 µM; with Ba/F3 LMNA-NTRK1 cells, less than 0.05 µM; in assay [1] it was no more than 0.05 µM.
